The results in this text go back to PMC9648375, “Identification of the first-in-class dual inhibitors of human DNA topoisomerase IIα and indoleamine-2,3-dioxygenase 1 (IDO 1) with strong anticancer properties” (Journal of Enzyme Inhibition and Medicinal Chemistry, 2022).

Series [1] relates to FaDu (squamous cell carcinoma of the pharynx). Description: MTT assay. In kind it is cell-based. The conditions noted are these: Homo sapiens, read-out: IC50, cytotoxicity. The procedure: (§1) Therefore, the whole set of compounds were tested by using MTT assay in order to check their overall cytotoxic effect. The growth of cells was monitored after 24 and 48 h of incubation with the increased concentrations (1–100 µg/ml) of the thiosemicarbazide derivatives. […] This confirms that the compounds tested combine different mechanisms of anticancer activity, and DNA topoisomerase II inhibition is only one of them.
(§2) Cytotoxicity of the synthesised compounds were examined against a panel of the cancer cell lines, MCF-7 (estrogen-dependent human breast cancer cells), MDA-MB-231 (oestrogen-independent human breast cancer cells), SCC- 25 (squamous cell carcinoma of the tongue), FaDu (squamous cell carcinoma of the pharynx), A- 549 (human lung carcinoma), AGS (human gastric adenocarcinoma), LS-180, HT-29 (colon cancer cell lines), T98G (glioblastoma cells), A375 (melanoma cells). Human embryonic kidney (HEK-293) cells and human normal skin fibroblasts (CRL-2072) were used as reference cell lines. The investigated cell lines were obtained from American Type Culture Collection (ATCC; Manassas, VA, USA). A375, MCF-7, MDA-MB-231, T98G cells were cultured in Dulbecco’s Modified Eagle’s Medium (DMEM) (Sigma Aldrich, St. Louis, MO, USA) supplemented with 10% heat inactivated foetal bovine serum (FBS), penicillin (100 U/mL), and streptomycin (100 μg/mL). SCC-25 cells were cultured in 1:1 mixture of Dulbecco’s modified Eagle’s medium and Ham’s F12 Medium (Sigma Aldrich, St. Louis, MO, USA) supplemented with 400 ng/ml hydrocortisone, 10% FBS, penicillin (100 U/mL), and streptomycin (100 μg/mL). A549 and AGS cells were maintained in F-12K Medium (Sigma Aldrich, St. Louis, MO, USA). LS-180 and FaDu cells were cultured in Eagle’s Minimum Essential Medium. HT-29 cells were maintained in McCoy’s 5 A Medium (Sigma Aldrich, St. Louis, MO, USA) supplemented with 10%FBS, penicillin (100 U/mL), and streptomycin (100 μg/mL). All the cells were maintained at 37 °C in a humidified atmosphere of 5% CO2.
(§3) The synthesised compounds were dissolved in DMSO in order to obtain stock solutions. At the day of the experiment, the suspension of cells (1 × 10^5 cells/mL) in the respective medium was applied to a 96-well plate at 100 μL per well. […] The control cells were cultured only with a medium containing 2% FBS. Cytotoxicity of DMSO was also checked at concentrations present in respective dilutions of stock solution. After 24 h (or 48 h) of incubation, 15 μL of MTT working solution (5 mg/mL in PBS) was added to each well. The plate was incubated for 3 h. Subsequently, 100 μL of 10% SDS solution was added to each well. Cells were incubated overnight at 37 °C to dissolve the precipitated formazan crystals. The concentration of the dissolved formazan was evaluated by measuring the absorbance at λ = 570 nm, using a microplate reader (Epoch, BioTek Instruments, Inc., Winooski, VT, USA). At least two independent experiments were performed in triplicates. The results of the MTT assay were expressed as mean ± SD. […] IC50 values of the investigated derivatives and standards were calculated using the IC50 calculator.[23]
(In general: Tetrazolium dyes change colour on reduction, which living cells bring about.)

Series [2] deals with AGS (human gastric adenocarcinoma). Put plainly: MTT assay. The class given is cell-based. The conditions noted are these: read-out: IC50, cytotoxicity. The procedure: as §1, §2, §3
Series [3] deals with LS180 (colon cancer cell line). Description: MTT assay. The conditions noted are these: Homo sapiens, read-out: IC50, cytotoxicity. In kind it is cell-based. How it is done: as §1, §2, §3
Series [4] concerns HT-29 (colon cancer cell line). Description: MTT assay. In kind it is cell-based. As to conditions: Homo sapiens, HT-29, MTT, read-out: IC50, cytotoxicity. How it is done:
as §1, §2, §3

The subject of series [5] is A375 (melanoma cells). Description: MTT assay. The class given is cell-based. As to conditions: Homo sapiens, read-out: IC50, cytotoxicity. The procedure: as §1, §2, §3
Series [6] relates to MDA-MB-231 (estrogen-independent human breast cancer cells). Put plainly: MTT assay. In kind it is cell-based. As to conditions: MDA-MB-231, MTT, read-out: IC50, cytotoxicity. The procedure:
as §1, §2, §3

The test system of series [7] is T98G (glioblastoma cells). Put plainly: MTT assay. The class given is cell-based. The conditions noted are these: Homo sapiens, read-out: IC50, cytotoxicity. The procedure: as §1, §2, §3
Series [8] relates to A549 (human lung carcinoma). Put plainly: MTT assay. In kind it is cell-based. As to conditions: read-out: IC50, cytotoxicity. The procedure: as §1, §2, §3
Series [9] concerns SCC-25 (squamous cell carcinoma of the tongue). Put plainly: MTT assay. The conditions noted are these: Homo sapiens, SCC-25, MTT, read-out: IC50, cytotoxicity. In kind it is cell-based. How it is done:
as §1, §2, §3

Series [10] relates to MCF-7 (estrogen-dependent human breast cancer cells). Put plainly: MTT assay. The class given is cell-based. The conditions noted are these: MCF7, MCF-7, MTT, read-out: IC50, cytotoxicity. How it is done: as §1, §2, §3
Series [11] in a line: MTT assay. As to conditions: human, HEK-293 cells (normal reference cell line), HEK-293 (normal cells), read-out: IC50, cytotoxicity. The class given is cell-based. The procedure:
as §1, §2, §3

Each structure is given as a SMILES string. Values after ≈ are worked out from the molar mass of the structure shown. Read-outs that look alike come from different tables or passages of the source.

In general, melting point refers to the temperature of the solid-liquid transition. Broadly, the IC50 is the point on the concentration scale where inhibition reaches its midpoint. Molecule `O=C(Cc1cccc2ccccc12)NNC(=S)NC(=O)c1ccccc1` [Compound 9, 4-Benzoyl-1-[(naphth-1-yl)acetyl]thiosemicarbazide] returned a melting point of 164 to 166 °C. Besides, the IC50 in [1] (24h) came out at 28.2 µg/mL (≈ 77.5 µM). The IC50 in [1] (48 h) came out at 19.5 µg/mL (≈ 53.7 µM). Moreover, in series [2] (24h), the IC50 was greater than 100 µg/mL. For the same molecule, the IC50 in [2] (48 h) turned out to be 19.7 µg/mL (≈ 54.1 µM). For the same molecule, the IC50 in series [3] (24h) was greater than 100 µg/mL. Also, the IC50 in series [3] (48 h) was found to be 19.8 µg/mL (≈ 54.5 µM). Moreover, in series [4] (24h), the IC50 is greater than 100 µg/mL. The half-inhibitory concentration (IC50) in [4] (48 h) came to 5.23 µg/mL (≈ 14.4 µM). For the same molecule, the IC50 in series [5] (A-375, 24h) is greater than 100 µg/mL. Besides, the IC50 in series [5] (A-375, 48 h) worked out at 8.14 µg/mL (≈ 22.4 µM). Moreover, the IC50 in series [6] (24h) is greater than 100 µg/mL. The IC50 in series [6] (48h) was greater than 100 µg/mL. In series [7] (24h), the IC50 was greater than 100 µg/mL. The IC50 in [7] (48h) amounted to 17.4 µg/mL (≈ 47.8 µM). Further, the IC50 in [8] (24h) is greater than 100 µg/mL. Also, in series [8] (48h), the IC50 is greater than 100 µg/mL. The IC50 in [9] (24h) stood at 32.2 µg/mL (≈ 88.6 µM). Further, the IC50 in [9] (48 h) is 34.5 µg/mL (≈ 94.9 µM). The IC50 in [10] (24h) is greater than 100 µg/mL. Besides, in [10] (48h), the IC50 is 16.4 µg/mL (≈ 45 µM). Further, in series [11], the IC50 at 24 h was determined as 67 µg/mL (≈ 184 µM) and the IC50 at 48 h was found to be 23 µg/mL (≈ 63.4 µM).

Molecule `O=C(NNC(=S)Nc1c(F)cccc1F)c1ccccc1[N+](=O)[O-]` [Compound 4, 4-(2,6-Difluorophenyl)-1-(2-nitrobenzoyl)thiosemicarbazide] registered a melting point of 278 to 280 °C. Moreover, the IC50 in [1] (24h) is greater than 100 µg/mL. Also, in series [1] (48 h), the IC50 stood at 39.2 µg/mL (≈ 111 µM). In series [2] (24h), the 50% inhibitory concentration (IC50) was greater than 100 µg/mL. Besides, the IC50 in [2] (48 h) stood at 63.9 µg/mL (≈ 181 µM). Also, the half-maximal inhibitory concentration (IC50) in series [3] (24h) was greater than 100 µg/mL. Besides, the IC50 in series [3] (48 h) turned out to be 55.6 µg/mL (≈ 158 µM). Moreover, in series [4] (24h), the IC50 is 25 µg/mL (≈ 71 µM). Besides, in series [4] (48 h), the IC50 was greater than 100 µg/mL. Further, the IC50 in series [5] (A-375, 24h) is greater than 100 µg/mL. Also, the IC50 in [5] (A-375, 48 h) is 14.8 µg/mL (≈ 42 µM). The IC50 in [6] (24h) is greater than 100 µg/mL. The IC50 in series [6] (48h) is 32.5 µg/mL (≈ 92.2 µM). In series [7] (24h), the IC50 came to 55.5 µg/mL (≈ 157 µM). The IC50 in series [7] (48h) is 7.26 µg/mL (≈ 20.6 µM). Also, the IC50 in series [8] (24h) is greater than 100 µg/mL. Also, in series [8] (48h), the IC50 is greater than 100 µg/mL. In addition, the IC50 in series [9] (24h) is greater than 100 µg/mL. In series [9] (48 h), the IC50 came to 40.9 µg/mL (≈ 116 µM). The IC50 in series [10] (24h) is greater than 100 µg/mL. In addition, in series [10] (48h), the IC50 came to 19.4 µg/mL (≈ 55.1 µM). In series [11], the IC50 at 24 h is greater than 100 µg/mL and the IC50 at 48 h was greater than 100 µg/mL.

`O=C(NC(=S)NNC(=O)c1ccccc1[N+](=O)[O-])c1ccc([N+](=O)[O-])cc1` [Compound 6, 1-(2-Nitrobenzoyl)-4-(4-nitrobenzoyl)thiosemicarbazide]: the IC50 in series [1] (24h) is 12.9 µg/mL (≈ 33.1 µM); in [1] (48 h) it was 14.8 µg/mL (≈ 37.9 µM); in [2] (24h), 23.5 µg/mL (≈ 60.3 µM); in [2] (48 h) it was 29.8 µg/mL (≈ 76.5 µM); in series [3] (24h) it was greater than 100 µg/mL; in series [3] (48 h), 10.4 µg/mL (≈ 26.7 µM). Further, the IC50 was 22.8 µg/mL (≈ 58.5 µM) in series [4] (24h); 6.78 µg/mL (≈ 17.4 µM) in [4] (48 h); greater than 100 µg/mL in series [5] (A-375, 24h); 7.98 µg/mL (≈ 20.5 µM) in series [5] (A-375, 48 h); greater than 100 µg/mL in series [6] (24h); 16.8 µg/mL (≈ 43.3 µM) in [6] (48h). Also, the IC50 was found to be 8.41 µg/mL (≈ 21.6 µM) in series [7] (24h); 9.78 µg/mL (≈ 25.1 µM) in [7] (48h); 20.8 µg/mL (≈ 53.3 µM) in series [8] (24h); 23.4 µg/mL (≈ 60.2 µM) in [8] (48h); 26 µg/mL (≈ 66.7 µM) in series [9] (24h); 9.78 µg/mL (≈ 25.1 µM) in series [9] (48 h). Further, the IC50 in series [10] (24h) was greater than 100 µg/mL; in series [10] (48h) it was 15.9 µg/mL (≈ 40.9 µM). Moreover, in series [11], the IC50 at 24 h is greater than 100 µg/mL. Moreover, in series [11], the IC50 at 48 h was 60.1 µg/mL (≈ 154 µM).
